According to PubChem BioAssay (NCI):
Several values for one entry are separate records, joined by “and”; a condition that tells them apart may be missing. Equal entries are not always repeated.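 Results reflect a 48-hour exposure of cells in 96-well plates to compound at five concentrations. GI50 = concentration required for 50% inhibition of growth. At the TGI there is no net growth.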

Columns and labels:
Assay in all cases: NCI tumour cell line growth inhibition, 48 h
HL-60(TB) leukemia = system: HL-60(TB) leukemia
RXF-631 renal = system: RXF-631 renal
IGROV1 ovarian = system: IGROV1 ovarian
EKVX NSCLC = system: EKVX NSCLC
LOX IMVI melanoma = system: LOX IMVI melanoma
DMS 273 small cell lung = system: DMS 273 small cell lung
TK-10 renal = system: TK-10 renal
MOLT-4 leukemia = system: MOLT-4 leukemia
RPMI-8226 leukemia = system: RPMI-8226 leukemia
SK-MEL-28 melanoma = system: SK-MEL-28 melanoma
SW-620 colon = system: SW-620 colon
CCRF-CEM leukemia = system: CCRF-CEM leukemia
SNB-19 CNS = system: SNB-19 CNS
UO-31 renal = system: UO-31 renal
UACC-257 melanoma = system: UACC-257 melanoma
COLO 205 colon = system: COLO 205 colon
SNB-78 CNS = system: SNB-78 CNS
HCT-116 colon = system: HCT-116 colon
HOP-92 NSCLC = system: HOP-92 NSCLC
M14 melanoma = system: M14 melanoma
SF-295 CNS = system: SF-295 CNS
HCC-2998 colon = system: HCC-2998 colon
KM20L2 colon = system: KM20L2 colon
SN12C renal = system: SN12C renal
LXFL 529 NSCLC = system: LXFL 529 NSCLC
HCT-15 colon = system: HCT-15 colon
SF-268 CNS = system: SF-268 CNS
DLD-1 colon = system: DLD-1 colon
SNB-75 CNS = system: SNB-75 CNS
ACHN renal = system: ACHN renal
U251 CNS = system: U251 CNS
KM12 colon = system: KM12 colon
DMS 114 small cell lung = system: DMS 114 small cell lung
HT29 colon = system: HT29 colon
MALME-3M melanoma = system: MALME-3M melanoma
RXF 393 renal = system: RXF 393 renal
A549 NSCLC = system: A549 NSCLC
A498 renal = system: A498 renal
SR leukemia = system: SR leukemia
XF 498 CNS = system: XF 498 CNS
SK-MEL-2 melanoma = system: SK-MEL-2 melanoma
NCI-H460 lung = system: NCI-H460 lung
NCI-H23 lung = system: NCI-H23 lung
HOP-18 NSCLC = system: HOP-18 NSCLC
SF-539 CNS = system: SF-539 CNS
OVCAR-5 ovarian = system: OVCAR-5 ovarian
OVCAR-4 ovarian = system: OVCAR-4 ovarian
CAKI-1 renal = system: CAKI-1 renal
K-562 leukemia = system: K-562 leukemia
OVCAR-8 ovarian = system: OVCAR-8 ovarian
SK-OV-3 ovarian = system: SK-OV-3 ovarian
UACC-62 melanoma = system: UACC-62 melanoma
786-0 renal = system: 786-0 renal
OVCAR-3 ovarian = system: OVCAR-3 ovarian
NCI-H522 lung = system: NCI-H522 lung
SK-MEL-5 melanoma = system: SK-MEL-5 melanoma
M19-MEL melanoma = system: M19-MEL melanoma
NCI-H226 lung = system: NCI-H226 lung
HOP-62 NSCLC = system: HOP-62 NSCLC
MDA-N = system: MDA-N
MCF7 breast = system: MCF7 breast
MDA-MB-231 breast = system: MDA-MB-231 breast
NCI/ADR-RES ovarian = system: NCI/ADR-RES ovarian
T-47D breast = system: T-47D breast
BT-549 breast = system: BT-549 breast
MDA-MB-435 = system: MDA-MB-435
HS 578T breast = system: HS 578T breast
PC-3 prostate = system: PC-3 prostate
DU-145 prostate = system: DU-145 prostate

## COc1nc(N)c(NC(C)=O)c(=O)n1C
HL-60(TB) leukemia
  TGI: > 100 µM
RXF-631 renal
  TGI: > 100 µM
IGROV1 ovarian
  TGI: > 100 µM
EKVX NSCLC
  TGI: > 100 µM
LOX IMVI melanoma
  TGI: > 100 µM
DMS 273 small cell lung
  TGI: > 100 µM
TK-10 renal
  TGI: > 100 µM
MOLT-4 leukemia
  TGI: > 100 µM
RPMI-8226 leukemia
  TGI: > 100 µM
SK-MEL-28 melanoma
  TGI: > 100 µM
SW-620 colon
  TGI: > 100 µM
CCRF-CEM leukemia
  TGI: > 100 µM
SNB-19 CNS
  TGI: > 100 µM
UO-31 renal
  TGI: > 100 µM
UACC-257 melanoma
  TGI: > 100 µM
COLO 205 colon
  TGI: > 100 µM
SNB-78 CNS
  TGI: > 100 µM
HCT-116 colon
  TGI: > 100 µM
HOP-92 NSCLC
  TGI: > 100 µM
M14 melanoma
  TGI: > 100 µM
SF-295 CNS
  TGI: > 100 µM
HCC-2998 colon
  TGI: > 100 µM
KM20L2 colon
  TGI: > 100 µM
SN12C renal
  TGI: > 100 µM
LXFL 529 NSCLC
  TGI: > 100 µM
HCT-15 colon
  TGI: > 100 µM
SF-268 CNS
  TGI: > 100 µM
DLD-1 colon
  TGI: > 100 µM
SNB-75 CNS
  TGI: > 100 µM
ACHN renal
  TGI: > 100 µM
U251 CNS
  TGI: > 100 µM
KM12 colon
  TGI: > 100 µM
DMS 114 small cell lung
  TGI: > 100 µM
HT29 colon
  TGI: > 100 µM
MALME-3M melanoma
  TGI: > 100 µM
RXF 393 renal
  TGI: > 100 µM
A549 NSCLC
  TGI: > 100 µM
A498 renal
  TGI: > 100 µM
SR leukemia
  TGI: > 100 µM
XF 498 CNS
  TGI: > 100 µM
SK-MEL-2 melanoma
  TGI: > 100 µM
NCI-H460 lung
  TGI: > 100 µM
NCI-H23 lung
  TGI: > 100 µM
HOP-18 NSCLC
  TGI: > 100 µM
SF-539 CNS
  TGI: > 100 µM
OVCAR-5 ovarian
  TGI: > 100 µM
OVCAR-4 ovarian
  TGI: > 100 µM
CAKI-1 renal
  TGI: > 100 µM
K-562 leukemia
  TGI: > 100 µM
OVCAR-8 ovarian
  TGI: > 100 µM

## CCOc1ccccc1N=Nc1c(-c2ccccc2)nn(C(=O)CC(=O)Nc2cccc(C)c2)c1-c1ccccc1
HL-60(TB) leukemia
  TGI: > 100 µM
SK-OV-3 ovarian
  TGI: > 100 µM
RXF-631 renal
  TGI: > 100 µM
IGROV1 ovarian
  TGI: > 100 µM
EKVX NSCLC
  TGI: > 100 µM
LOX IMVI melanoma
  TGI: > 100 µM
DMS 273 small cell lung
  TGI: > 100 µM
TK-10 renal
  TGI: > 100 µM
MOLT-4 leukemia
  TGI: > 100 µM
RPMI-8226 leukemia
  TGI: > 100 µM
SK-MEL-28 melanoma
  TGI: > 100 µM
UACC-62 melanoma
  TGI: > 100 µM
786-0 renal
  TGI: > 100 µM
SW-620 colon
  TGI: > 100 µM
CCRF-CEM leukemia
  TGI: > 100 µM
SNB-19 CNS
  TGI: > 100 µM
UO-31 renal
  TGI: > 100 µM
UACC-257 melanoma
  TGI: > 100 µM
COLO 205 colon
  TGI: > 100 µM
SNB-78 CNS
  TGI: > 100 µM
HCT-116 colon
  TGI: > 100 µM
OVCAR-3 ovarian
  TGI: > 100 µM
NCI-H522 lung
  TGI: > 100 µM
HOP-92 NSCLC
  TGI: > 100 µM
M14 melanoma
  TGI: > 100 µM
SF-295 CNS
  TGI: > 100 µM
HCC-2998 colon
  TGI: > 100 µM
KM20L2 colon
  TGI: > 100 µM
SK-MEL-5 melanoma
  TGI: > 100 µM
SN12C renal
  TGI: > 100 µM
LXFL 529 NSCLC
  TGI: > 100 µM
SF-268 CNS
  TGI: > 100 µM
DLD-1 colon
  TGI: > 100 µM
SNB-75 CNS
  TGI: > 100 µM
ACHN renal
  TGI: > 100 µM
U251 CNS
  TGI: > 100 µM
KM12 colon
  TGI: > 100 µM
DMS 114 small cell lung
  TGI: > 100 µM
M19-MEL melanoma
  TGI: > 100 µM
HT29 colon
  TGI: > 100 µM
MALME-3M melanoma
  TGI: > 100 µM
RXF 393 renal
  TGI: > 100 µM
A549 NSCLC
  TGI: > 100 µM
SR leukemia
  TGI: > 100 µM
XF 498 CNS
  TGI: > 100 µM
SK-MEL-2 melanoma
  TGI: > 100 µM
NCI-H460 lung
  TGI: > 100 µM
NCI-H23 lung
  TGI: > 100 µM
HOP-18 NSCLC
  TGI: > 100 µM
SF-539 CNS
  TGI: > 100 µM
NCI-H226 lung
  TGI: > 100 µM
OVCAR-5 ovarian
  TGI: > 100 µM
OVCAR-4 ovarian
  TGI: > 100 µM
CAKI-1 renal
  TGI: > 100 µM
K-562 leukemia
  TGI: > 100 µM
HOP-62 NSCLC
  TGI: > 100 µM
OVCAR-8 ovarian
  TGI: > 100 µM

## O=C1/C(=C/c2ccc(Cl)cc2)CNC/C1=C\c1ccc(Cl)cc1
HL-60(TB) leukemia
  GI50: 2.42 µM and 9.41 µM
SK-OV-3 ovarian
  TGI: > 100 µM
RXF-631 renal
  TGI: 12.5 µM
MDA-N
  TGI: 16.1 µM
IGROV1 ovarian
  TGI: 4.15 µM and 3.49 µM
EKVX NSCLC
  GI50: 5.74 µM and 2.29 µM
  TGI: 21.2 µM and 6.75 µM
LOX IMVI melanoma
  TGI: 4.02 µM
MCF7 breast
  TGI: 21.2 µM
DMS 273 small cell lung
  TGI: 5.78 µM
TK-10 renal
  TGI: 25.9 µM and 12.3 µM
RPMI-8226 leukemia
  TGI: 0.722 µM
SK-MEL-28 melanoma
  GI50: 1.3 µM
  TGI: 3.74 µM and 2.96 µM
UACC-62 melanoma
  TGI: > 19.9 µM
786-0 renal
  TGI: 4.69 µM and 2.77 µM
MDA-MB-231 breast
  TGI: > 100 µM
SW-620 colon
  GI50: 0.381 µM
CCRF-CEM leukemia
  GI50: 0.596 µM and 1.32 µM
  TGI: 10.3 µM and > 100 µM
NCI/ADR-RES ovarian
  TGI: 9.61 µM
SNB-19 CNS
  TGI: 3.14 µM and 11 µM
UO-31 renal
  GI50: 1.62 µM and 3.48 µM
  TGI: 2.98 µM and 6.5 µM
UACC-257 melanoma
  GI50: 1.78 µM and 7.7 µM
COLO 205 colon
  GI50: 2.61 µM
  TGI: 4.25 µM and 8.35 µM
SNB-78 CNS
  TGI: 12.1 µM
T-47D breast
  TGI: 36.1 µM
BT-549 breast
  TGI: 8.41 µM
HCT-116 colon
  TGI: 3.07 µM and 3.85 µM
OVCAR-3 ovarian
  TGI: 4.87 µM and 4.9 µM
NCI-H522 lung
  TGI: 4.4 µM and 4.75 µM
HOP-92 NSCLC
  TGI: > 26.2 µM
M14 melanoma
  TGI: 8.7 µM
SF-295 CNS
  GI50: 0.532 µM and 2.26 µM
  TGI: 4.59 µM and 5.8 µM
HCC-2998 colon
  TGI: 4 µM and 3.36 µM
SK-MEL-5 melanoma
  TGI: 22.1 µM and 11.3 µM
SN12C renal
  TGI: 6.38 µM and 14.3 µM
LXFL 529 NSCLC
  TGI: 2.4 µM
MDA-MB-435
  TGI: 13.7 µM
HCT-15 colon
  TGI: 2.6 µM
SF-268 CNS
  TGI: 3.77 µM
DLD-1 colon
  TGI: 6.78 µM
SNB-75 CNS
  TGI: 10.3 µM and > 29.5 µM
ACHN renal
  TGI: 4.17 µM and 7.08 µM
U251 CNS
  GI50: 0.502 µM
  TGI: 3.67 µM and 1.78 µM
HS 578T breast
  TGI: > 41.7 µM
KM12 colon
  TGI: 3.07 µM
M19-MEL melanoma
  TGI: 4.81 µM
HT29 colon
  GI50: 0.254 µM and 1.28 µM
  TGI: 0.697 µM and 3.38 µM
MALME-3M melanoma
  TGI: 20.5 µM and 16.8 µM
RXF 393 renal
  GI50: 1.64 µM and 3.97 µM
  TGI: 3 µM and 7.85 µM
A549 NSCLC
  TGI: > 100 µM and 27.4 µM
A498 renal
  TGI: 5.01 µM and 25.6 µM
SR leukemia
  TGI: > 100 µM
XF 498 CNS
  TGI: 7.28 µM
SK-MEL-2 melanoma
  GI50: 4.92 µM and 14.5 µM
  TGI: 28.4 µM and 43.2 µM
NCI-H23 lung
  TGI: 4.17 µM and 4.24 µM
HOP-18 NSCLC
  TGI: 18 µM
SF-539 CNS
  TGI: 3.2 µM and 4.11 µM
OVCAR-5 ovarian
  TGI: 13.4 µM
OVCAR-4 ovarian
  GI50: 1.52 µM
CAKI-1 renal
  TGI: 5.98 µM and 3.82 µM
PC-3 prostate
  TGI: 21.2 µM
K-562 leukemia
  GI50: 0.551 µM and 1.37 µM
  TGI: 17.3 µM and > 100 µM
HOP-62 NSCLC
  TGI: 12.5 µM and 7.03 µM
DU-145 prostate
  TGI: 7.57 µM
